Experimental data published in patent US12686666B2, “Triazine compound salt, crystal form thereof, and production method therefor” (TANABE PHARMA CORPORATION, priority 2020, dated 2026).
Marks after values point to notes of the source that are not given here.

Key:
[1] = Hygroscopicity or deliquescency evaluation (moisture adsorption, DVS); format: physicochemical; details: for Hygroscopicity or deliquescency, conclusion in words: from Table 5
Description: Hygroscopicity or deliquescency was evaluated as follows by using a moisture adsorption measurement device DVS-1 or DVS-intrinsic (Surface Measurement Systems Limited). Each sample (about 5 mg) was placed into an aluminum plate of which the tare weight had been corrected in advance, and the plate was hung on the precision balance of said device to precisely measure the weight at the start of measurement. The humidity was changed in a stepwise manner in a chamber at 25° C., the weight change was recorded with time, and the equilibrium weight was calculated at each humidity. On the basis of the weight at a dried condition (0% RH), the weight change rate and hydration number at each humidity were calculated.
Hygroscopicity or deliquescency was evaluated as follows by using a moisture adsorption measurement device DVS-1 or DVS-intrinsic (Surface Measurement Systems Limited). Each sample was placed into a cell of which the tare weight had been corrected in advance, and the cell was hung on the precision balance of said device to precisely measure the weight at the start of measurement. The humidity was changed in a stepwise manner, the weight change was recorded with time, and the equilibrium weight was calculated at each humidity. On the basis of the weight of anhydride converted from the amount of water at a dried condition (0% RH) or at the start of measurement observed by an alternative method, the weight change rate at each humidity was calculated.

[2] = Thermal stability evaluation (TG/DTA weight change); format: physicochemical; details: for Thermal stability, conclusion in words: did not show a significant weight change (Succinate Form A: at 25 to 148° C., melting point)
Description: (§1) Thermal stability was measured and evaluated by using a thermogravimetry/differential thermal analyzer TG/DTA7200 (SII NanoTechnology Inc.) under the following conditions. • Rate of temperature increase: 10° C./min • Range of temperature increase: 25 to 300° C. • Atmosphere: nitrogen 200 mL/min <Hygroscopicity or Deliquescency Evaluation>
as §1, with “Inc.) under the following conditions • Rate of temperature increase: 10° C./min • Range of temperature increase: 30 to 300° C. • Atmosphere: nitrogen 200 mL/min • or • using a TGA/DSC1 thermogravimetric analyzer (manufactured by Mettler Toledo, STARe system)” for “Inc.)”, “nitrogen 50” for “nitrogen 200”

[3] = Pharmacokinetics in dogs treated with a promotor (pentagastrin) or an inhibitor (omeprazole) of gastric acid secretion; format: in vivo, dogs (male beagle); details: dog; for Cmax / AUC(0-inf) / AUC(0-t) / Tmax / half-life: male, beagle, plasma, po, 10 mg, fasted, mean; for Cmax: oral 10 mg/capsule (free form equivalent); for AUC(0-inf) / AUC(0-t) / Tmax / half-life: oral 10 mg/capsule
Description: The pharmacokinetics of hydrobromide of the Triazine compound A and the Triazine compound A under gastric acid secretion and gastric pH adjustment was evaluated by using dogs treated with a promotor of gastric acid secretion or an inhibitor of gastric acid secretion according to a crossover method of 2 groups with 4 phases.
Pentagastrin was used in the treatment of a promotor of gastric acid secretion. Pentagastrin (2.8 mg) was dissolved into dimethylsulfoxide (7.0 mL) and water for injection (7.0 mL) to prepare an administration solution, and administered into a muscle in the thigh at a dose of […]. Pentagastrin was administered 0.5 hour before and 0.5 hour after the administration of each test material (hydrobromide of the Triazine compound A (Compound 1 prepared in Example 1) or the Triazine compound A (Compound 10 prepared in Example 1)). Omeprazole was used in the treatment of an inhibitor of gastric acid secretion. Omeprazole (90 mg) was dissolved into a 1:1 mixed solution (22.5 mL) of a 0.1% aqueous solution of sodium hydrogen carbonate (w/v) and polyethyleneglycol 400 to prepare an administration solution, and administered into a saphenous vein of the hind limb at a dose of 1 mg/0.25 mL/kg. Omeprazole was administered 1 hour before the administration of each test material.
After 25 mL of water for injection was administered to each dog by using a syringe having an oral catheter, the hydrobromide of the Triazine compound A or the Triazine compound A was forcedly orally administered to each dog at a dose of 10 mg/capsule (in case of hydrobromide of the Triazine compound A, free form equivalent (i.e., 10 mg in terms of the Triazine compound A)), and additional 25 mL of water for injection was administered to each dog through the syringe having an oral catheter. Each test material was administered under fasting state, and each dog was fed 6 hours after the administration. Each dog was deprived of water from 1 hour before the administration of each test material to 2 hours after the administration.
Tests were carried out by using 6 heads of 4 year-old male beagle and dividing them into two groups, each of which comprises 3 heads. The dogs in Group 1 were subjected to the administration in the order of (Phase 1) omeprazole administration, then the Triazine compound A administration, (Phase 2) omeprazole administration, then the hydrobromide of the Triazine compound A administration, (Phase 3) pentagastrin administration, then the Triazine compound A administration, and (Phase 4) pentagastrin administration, then the hydrobromide of the Triazine compound A administration, and the dogs in Group 2 were subjected to the administration in the order of (Phase 1) omeprazole administration, then the hydrobromide of the Triazine compound A administration, (Phase 2) omeprazole administration, then the Triazine compound A administration, (Phase 3) pentagastrin administration, then the hydrobromide of the Triazine compound A administration, and (Phase 4) pentagastrin administration, then the Triazine compound A administration, and washout period between each phase was 6 or 7 days. After 15 minutes, 30 minutes, 1, 2, 4, 6, 8, and 24 hour(s) from the administration of the hydrobromide of the Triazine compound A or the Triazine compound A, 0.6 mL of whole blood sample was collected under awakening of each dog from a cephalic vein by using a heparin sodium injection. The whole blood sample was processed into a plasma, and the drug concentration of the Triazine compound A was analyzed by using liquid chromatography-tandem mass spectrometry (LC-MS/MS). […]

[4] = Chemical stability evaluation (storage 1 week, liquid chromatography peak area %); format: physicochemical; details: for Chemical stability, conclusion in words: did not show a significant increase of related substances; for Chemical stability 60° C., 75% RH, 1 week (open) / Chemical stability 60° C. (sealed): Table 5, change of related substances (peak area %) vs start; for Chemical stability 60° C. (sealed): stored 1 week at 60° C. sealed
Description: Each about 1 mg of a sample stored at 60° C. (sealed) or 60° C./75% RH (open) for 1 week and an unstored sample (at the start of test) was dissolved into a mixed solution of acetonitrile/water (1:1) (5 mL) to obtain each sample solution. A test was carried out by liquid chromatographic method under the following conditions to measure each peak area (%).
Each peak area (%) was measured by using Waters ACQUITY UPLC under the following conditions. • Detector: Photodiode array (measurement wavelength: 239 nm) • Column: Waters ACQUITY BEH C18 (2.1 mm×100 mm, 1.7 μm) • Column temperature: constant temperature about 40° C. • Mobile phase: Solution A; water/TFA (2000:1), Solution B; Acetonitrile/TFA (2000:1) • Concentration gradient control: B % 2→100% (15 minutes) • Flow rate: 0.5 mL/min • Injection volume: 2 μL
Each sample was stored at 60° C. under a sealed condition and at 60° C. under 75% RH for 1 week, and an increase or decrease of related substance(s) after the storage was calculated by high-performance liquid chromatographic method on the basis of the area percentage of each peak. Also, the condition of each sample after the storage was observed.

[5] = Table 5, 25° C., relative to weight at 0% RH
[6] = Omeprazole, reduced gastric acid secretion
[7] = Pentagastrin, increased gastric acid secretion

Compound	Hygroscopicity or Deliquescency Weight change at 90% RH [1, 5]	Hygroscopicity or deliquescency, conclusion in words [1]	Thermal stability, conclusion in words [2]	Chemical stability, conclusion in words [4]	Chemical stability 60° C., 75% RH, 1 week (open) [4]	Chemical stability 60° C. (sealed) [4]	Thermal stability TG: weight change ([2]; 25° C.-melting point)	further results
Br.CC(=O)N[C@H]1CC[C@H](NC(=O)CN2CCN(c3nncc(-c4ccc(C)cc4)n3)CC2)CC1 [Hydrobromide Form A crystal, 3-[4-[[trans-4-(acetamino)cyclohexyl]carbamoylmethyl]piperazin-1-yl]-5-(p-tolyl)-1,2,4-triazine hydrobromide]	1.0%	excellent in the reduced hygroscopicity or deliquescency	excellent thermal stability	excellent chemical stability	–	–	–	Hygroscopicity or Deliquescency Weight change at 90% RH ([1]; Table 10, *1 with hydration stage): 1.0% ^; Thermal stability TG: weight change ([2]; 25-274° C.): 0.9%; Thermal stability TG: weight change ([2]; Table 10, 25-274° C.): 0.98; Change of plasma concentration with the gastric acid conditions ([3]; oral 10 mg free form equivalent, pentagastrin vs omeprazole): not changed; Cmax [3, 6]: 256 ng/mL; Cmax [3, 7]: 263 ng/mL; AUC(0-inf) [3, 6]: 2030 ng·h/mL; AUC(0-t) [3, 6]: 1990 ng·h/mL; Tmax [3, 6]: 1.83 h; half-life [3, 6]: 4.3 h; AUC(0-inf) [3, 7]: 2020 ng·h/mL; AUC(0-t) [3, 7]: 1990 ng·h/mL; Tmax [3, 7]: 1.67 h; half-life [3, 7]: 4.24 h
CC(=O)NC1CCC(NC(=O)CN2CCN(c3nncc(-c4ccc(C)cc4)n3)CC2)CC1.CS(=O)(=O)O (stereo not drawn) [Mesilate Form A crystal]	17%	–	excellent thermal stability	–	5.73%	−0.13%	–	Thermal stability TG: weight change ([2]; 120° C.): 0.8%
CC(=O)NC1CCC(NC(=O)CN2CCN(c3nncc(-c4ccc(C)cc4)n3)CC2)CC1.O=C(O)CCC(=O)O (stereo not drawn) [Succinate Form A crystal]	0.4%	excellent in the reduced hygroscopicity or deliquescency	excellent thermal stability	excellent chemical stability	0.02%	0.04%	–	Thermal stability TG: weight change ([2]; 25-148° C.): 0.0%; Thermal stability TG: weight change ([2]; 148-210° C.): 23.7%
CC(=O)NC1CCC(NC(=O)CN2CCN(c3nncc(-c4ccc(C)cc4)n3)CC2)CC1.CC(=O)NC1CCC(NC(=O)CN2CCN(c3nncc(-c4ccc(C)cc4)n3)CC2)CC1.O.O.O.O.O=S(=O)(O)O.O=S(=O)(O)O.O=S(=O)(O)O.O=S(=O)(O)O.O=S(=O)(O)O (stereo not drawn) [Sulfate Form B crystal]	5%*^1	excellent in the reduced hygroscopicity or deliquescency	excellent thermal stability	excellent chemical stability	0.13%	0%	–	Hydration state (hydration stage in moisture adsorption) ([1]; normal temperature, relative humidity of 10 to 95%): hydrate; Thermal stability TG: weight change ([2]; 25-93° C.): 4.3%; Thermal stability TG: weight change ([2]; 93-105° C.): 1.6%
CC(=O)NC1CCC(NC(=O)CN2CCN(c3nncc(-c4ccc(C)cc4)n3)CC2)CC1.Cc1ccc(S(=O)(=O)O)cc1 (stereo not drawn) [Tosilate Form B crystal]	7.5%	excellent in the reduced hygroscopicity or deliquescency	excellent thermal stability	excellent chemical stability	−0.05%	−0.07%	0.7%	–
CC(=O)NC1CCC(NC(=O)CN2CCN(c3nncc(-c4ccc(C)cc4)n3)CC2)CC1.Cc1ccc(S(=O)(=O)O)cc1.Cc1ccc(S(=O)(=O)O)cc1 (stereo not drawn) [Tosilate Form C crystal]	1.4%	excellent in the reduced hygroscopicity or deliquescency	excellent thermal stability	excellent chemical stability	0.39%	0.04%	1.2%	–
